{"source": "patent US10590393B2", "about": "“Retinoic acid enhanced human stem cell derived blood brain barrier model” (Wisconsin Alumni Research Foundation, priority 2012, dated 2020)", "type_in_all_cases": "cell-based, human", "key": {"[1]": {"test_system": "efflux transporter genes in IMR90-4-derived BMECs", "assay": "qPCR of efflux transporter gene expression", "details": "compared to untreated samples", "procedure": "Cells were washed once with PBS and dissociated with ACCUTASE (Invitrogen). Total RNA was extracted using an RNEASY Mini Kit (Qiagen) according to the manufacturer's instructions and quantified using a NanoDrop® ND-1000. cDNA was generated from 1 μg of total RNA using Omniscript reverse transcriptase (Qiagen) and an oligo-dT primer (Invitrogen). qPCR was conducted using 1 μL of cDNA and iQ SYBR Green Mastermix (Bio-Rad) on an iCycler (Bio-Rad). Relative expression was quantified between samples using the comparative cycle threshold (Ct) method with glyceraldehyde-3-phosphate dehydrogenase (GAPDH) as the housekeeping gene. […] Primer sequences were as previously reported."}, "DF19-9-11T-derived BMECs": {"test_system": "DF19-9-11T-derived BMECs", "assay": "Efflux transporter substrate accumulation", "details": "due to RA treatment", "procedure": "(§1) hiPSC-derived BMECs differentiated in the presence or absence of RA were subcultured onto 12-well plates in EC medium with 10 μM RA or equivalent DMSO depending on the differentiation condition. […] Cells were washed three times with phosphate-buffered saline (PBS) and then lysed with PBS containing 5% Triton X-100 (TX-100; Fisher). Fluorescence (485 nm excitation and 530 nm emission) was measured using a plate reader and radioactivity was measured on a scintillation counter. Fluorescence/radioactivity was normalized on a per cell basis by counting trypsin-dissociated cells on a hemacytometer. Duplicate or triplicate wells were used for each condition to calculate mean and standard deviation. Each experiment was conducted twice to ensure biological reproducibility."}, "IMR90-4-derived BMECs [2]": {"test_system": "IMR90-4-derived BMECs", "assay": "Efflux transporter substrate accumulation", "details": "10 μM RA vs. DMSO-treated controls; 1 h at 37° C.", "procedure": "as §1"}, "IMR90-4-derived BMECs [3]": {"test_system": "IMR90-4-derived BMECs", "assay": "TEER of RA-treated IMR90-4-derived BMECs (monoculture and neural cell co-culture)", "procedure": "IMR90-4 and DF19-9-11T hiPSCs and H9 hESCs were maintained between passages 26-42 on […] (BD Biosciences) in mTeSR1™ medium ([…] Technologies) or on irradiated mouse embryonic fibroblasts (MEFs) in standard unconditioned medium (Dulbecco's Modified Eagle's Medium [DMEM]/Ham's F12 containing 20% Knockout Serum Replacer (Invitrogen), 1×MEM nonessential amino acids (Invitrogen), 1 mM L-glutamine (Sigma), 0.1 mM β-mercaptoethanol (Sigma), and human basic fibroblast growth factor (bFGF; 100 ng/mL for hiPSCs and 4 ng/mL for hESCs; Waisman Clinical Biomanufacturing Facility, University of Wisconsin-Madison)). Prior to differentiation, cells were passaged onto Matrigel (BD Biosciences) in mTeSR1 medium ([…] Technologies). After 2-3 days in mTeSR1, medium was switched to unconditioned medium (UM) lacking bFGF for 6 days. Human endothelial serum-free medium (hESFM; Invitrogen) supplemented with 20 ng/mL bFGF (R&D Systems) and 1% platelet-poor plasma derived bovine serum (Biomedical Technologies, Inc.) was then added for an additional 2-4 days.\nAll-trans RA (Sigma) was included at concentrations of 1-10 μM depending on the experiment. Equivalent DMSO was used as a vehicle control in some experiments. Cells were then dissociated with Versene (Invitrogen) and plated onto 12-well tissue culture polystyrene plates or 1.12 cm^2 Transwell-Clear® permeable inserts (0.4 μm pore size) coated with a mixture of collagen IV (400 μg/mL; Sigma) and fibronectin (100 μg/mL; Sigma). Culture plates were incubated with the coating for at least 30 min at 37° C., while the inserts were incubated for a minimum of 4 h at 37° C. hPSC-derived BMECs were then cultured in EC medium overnight (with or without RA). […] Also, our previous study used hPSCs exclusively maintained on MEFs.\nFIG. 5 dictates the timing of co-culture experiments. During the subculture phase, hPSC-derived BMECs were monocultured or co-cultured with pericytes or fibroblasts in EC medium (with or without RA). After the 24 h subculture phase, hPSC-derived BMECs were maintained as a monoculture or co-cultured with differentiated hNPCs, pericytes, or fibroblasts. Depending on the experiment, co-culture was conducted in NPC differentiation medium containing 10% FBS (as opposed to the 1% FBS used during NPC differentiation) or hESFM containing 1% PDS but not bFGF (modified EC medium). Trans-endothelial electrical resistance (TEER) was measured immediately prior to co-culture using an EVOM voltohmmeter (World Precision Instruments, Sarasota, Fla., USA) and approximately every 24 h thereafter as necessary."}}, "note": "“And” between values parts separate entries of the source, which are not always exact repeats. Equal values may be shown once."}
{"molecule": "CC1=C(/C=C/C(C)=C/C=C/C(C)=C/C(=O)O)C(C)(C)CCC1", "note": "[RA, retinoic acid]", "values": [{"measurement": "ABCB1 (p-glycoprotein) upregulation, ΔΔCt", "setting": "[1]", "result": "1.6±0.4"}, {"measurement": "ABCC1 (MRP1) upregulation, ΔΔCt", "setting": "[1]", "result": "1.97±0.71"}, {"measurement": "ABCC2 (MRP2) upregulation, ΔΔCt", "setting": "[1]", "result": "1.3±0.31"}, {"measurement": "ABCC5 (MRP5) upregulation, ΔΔCt", "setting": "[1]", "result": "0.9±0.29"}, {"measurement": "ABCG2 (BCRP) upregulation, ΔΔCt", "setting": "[1]", "result": "1.8±0.15"}, {"measurement": "reduction in rhodamine 123 accumulation", "setting": "DF19-9-11T-derived BMECs", "result": 1.5, "unit": "fold"}, {"measurement": "decrease of DCFDA accumulation", "setting": "IMR90-4-derived BMECs [2]", "result": 2.9, "unit": "fold"}, {"measurement": "decrease of colchicine accumulation", "setting": "IMR90-4-derived BMECs [2]", "result": 2.4, "unit": "fold"}, {"measurement": "decrease of doxorubicin accumulation", "setting": "IMR90-4-derived BMECs [2]", "result": 1.6, "unit": "fold"}, {"measurement": "decrease of rhodamine 123 accumulation", "setting": "IMR90-4-derived BMECs [2]", "result": 1.4, "unit": "fold"}, {"measurement": "TEER", "setting": "IMR90-4-derived BMECs [3]; 24 hours after transfer to EC medium without bFGF or RA, monoculture", "result": "above 2000 Ω×cm^2"}, {"measurement": "TEER", "setting": "IMR90-4-derived BMECs [3]; 24 hours in modified EC medium, fibroblasts (FIG. 11a)", "result": "2405±366 Ω×cm^2"}, {"measurement": "TEER", "setting": "IMR90-4-derived BMECs [3]; 24 hours in modified EC medium, monoculture control (FIG. 11a)", "result": "2474±124 Ω×cm^2"}, {"measurement": "TEER", "setting": "IMR90-4-derived BMECs [3]; 24 hours, sequential pericyte/hNPC co-culture in modified EC medium (FIG. 11a)", "result": "5160±318 Ω×cm^2"}, {"measurement": "TEER", "setting": "IMR90-4-derived BMECs [3]; pericyte/hNPC co-culture, each of 7 co-cultures, hNPCs differentiated 10-19 days, 10% FBS (FIG. 10c)", "result": "exceeded 2500 Ω×cm^2"}, {"measurement": "TEER under optimal conditions", "setting": "IMR90-4-derived BMECs [3]; pericytes/hNPCs in modified EC medium, five out of six separate co-culture experiments", "result": "> 5000 Ω×cm^2"}, {"measurement": "Maximum TEER", "setting": "IMR90-4-derived BMECs [3]; subculture: monoculture, co-culture phase: differentiated NPCs (10 days), 10% FBS", "result": "2938 ± 229 (3) Ω × cm^2"}, {"measurement": "Maximum TEER", "setting": "IMR90-4-derived BMECs [3]; subculture: pericytes, co-culture phase: differentiated NPCs (10 days), 10% FBS", "result": "3606 ± 366 (7) Ω × cm^2"}, {"measurement": "Maximum TEER", "setting": "IMR90-4-derived BMECs [3]; subculture: pericytes, co-culture phase: differentiated NPCs (17 days), 1% PDS", "result": "5352±252 Ω × cm^2 and 5352 ± 252 (6) Ω × cm^2"}, {"measurement": "Maximum TEER", "setting": "IMR90-4-derived BMECs [3]; subculture: pericytes, co-culture phase: pericytes, 1% PDS (modified EC medium), 24 h", "result": "4454±174 Ω × cm^2 and 4454 ± 175 ^ Ω × cm^2"}, {"measurement": "Maximum TEER", "setting": "IMR90-4-derived BMECs [3]; subculture: pericytes, co-culture phase: pericytes, 10% FBS", "result": "2892 ± 271 ^ Ω × cm^2"}, {"measurement": "Average TEER", "setting": "IMR90-4-derived BMECs [3]; t = 0 h, monoculture, mean ± S.D. between biological replicates", "result": "956 ± 345 Ω × cm^2"}, {"measurement": "Maximum TEER", "setting": "IMR90-4-derived BMECs [3]; t = 0 h, monoculture, mean ± S.D. between triplicate filters", "result": "1502 ± 145 Ω × cm^2"}, {"measurement": "Average TEER", "setting": "IMR90-4-derived BMECs [3]; t = 24 h, monoculture, modified EC medium without bFGF or RA, between biological replicates", "result": "2935±802 Ω × cm^2 and at least 2935±802 Ω × cm^2"}, {"measurement": "Maximum TEER", "setting": "IMR90-4-derived BMECs [3]; t = 24 h, monoculture, triplicate filters", "result": "3674 ± 367 Ω × cm^2"}, {"measurement": "baseline TEER", "setting": "IMR90-4-derived BMECs [3]; t=0 h, 24 hours after purification at confluence, range over experiments", "result": "300-1500 Ω×cm^2"}, {"measurement": "TEER", "setting": "IMR90-4-derived BMECs [3]; t=0, human foreskin fibroblasts in place of pericytes (FIG. 11a)", "result": "2106±30 Ω×cm^2"}, {"measurement": "TEER", "setting": "IMR90-4-derived BMECs [3]; t=0, monoculture control of FIG. 11a", "result": "1575±163 Ω×cm^2"}, {"measurement": "TEER", "setting": "IMR90-4-derived BMECs [3]; t=0, pericyte co-culture during the subculture phase, standard EC medium (FIG. 11a)", "result": "3573±175 Ω×cm^2"}]}
